Assay results published in PMC8398255, “Synthesis of 3,5-Bis(trifluoromethyl)phenyl-Substituted Pyrazole Derivatives as Potent Growth Inhibitors of Drug-Resistant Bacteria” (Molecules, 2021).
In brackets after ≈: the same amount, converted by molar mass.

Columns and labels:
Type in all cases: cell-based
Gram-positive bacteria = assay: MIC across the tested strains; details: for MIC: across the tested strains
Method: (§1) Compounds were dissolved in dimethyl sulfoxide (DMSO) to achieve a starting concentration of 32 µg/mL as described by us previously. Compounds were further diluted two-fold across the 96-well honeycomb plate columns in cation adjusted Mueller Hinton broth (CAMHB), and bacterial culture was added. Plates were incubated for 18–20 h at 35 ℃ before determining the minimum concentrations at which wells had no visible turbidity to the naked eye. The MIC values were determined from at least a duplicate result obtained from three independent experiments using fresh bacterial cultures on different days.

[1] = tested on: E. faecium ATCC 700221 (Ef21); assay: MIC, microdilution (CLSI); details: Enterococcus faecium, ATCC 700221 / VRE; Ef21, vancomycin-resistant (VRE) E. faecium ATCC 700221; n = 3; read-out: MIC
Method: as §1

[2] = tested on: E. faecalis ATCC 29212 (Ef12); assay: MIC, microdilution (CLSI); details: Enterococcus faecalis, ATCC29212; Ef12, antibiotic susceptible E. faecalis ATCC 29212; n = 3; read-out: MIC
Method: as §1

[3] = tested on: E. faecalis ATCC 51299 (Ef99); assay: MIC, microdilution (CLSI); details: Enterococcus faecalis, ATCC 51299 / VRE; Ef99, vancomycin-resistant (VRE) E. faecalis ATCC 51299; n = 3; read-out: MIC
Method: as §1

[4] = tested on: S. epidermidis ATCC 700296 (Se); assay: MIC, microdilution (CLSI); details: Staphylococcus epidermidis, ATCC700296; Se, S. epidermidis ATCC 700296; n = 3; read-out: MIC
Method: as §1

[5] = tested on: S. aureus BAA-2312 (Sa12); assay: MIC, microdilution (CLSI); details: Staphylococcus aureus, BAA2312; Sa12, methicillin-resistant S. aureus BAA-2312; n = 3; read-out: MIC
Method: as §1

[6] = tested on: S. aureus ATCC 25923 (Sa23); assay: MIC, microdilution (CLSI); details: Staphylococcus aureus, ATCC25923; Sa23, antibiotic susceptible S. aureus ATCC 25923; n = 3; read-out: MIC
Method: as §1

[7] = tested on: S. aureus ATCC 33591 (Sa91); assay: MIC, microdilution (CLSI); details: Staphylococcus aureus, ATCC33591; Sa91, methicillin-resistant S. aureus ATCC 33591; n = 3; read-out: MIC
Method: as §1

[8] = tested on: S. aureus ATCC 33592 (Sa92); assay: MIC, microdilution (CLSI); details: Staphylococcus aureus, ATCC33592; Sa92, methicillin-resistant S. aureus ATCC 33592; n = 3; read-out: MIC
Method: as §1

[9] = tested on: Bacillus subtilis ATCC 6623 (Bs); assay: MIC, microdilution (CLSI); details: ATCC6623; Bs, Bacillus subtilis ATCC 6623; n = 3; read-out: MIC
Method: as §1

[10] = tested on: S. aureus ATCC 700699 (Sa99); assay: MIC, microdilution (CLSI); details: Staphylococcus aureus, ATCC700699; Sa99, methicillin-resistant S. aureus ATCC 700699; n = 3; read-out: MIC
Method: as §1

Row | SMILES | MIC (Gram-positive bacteria) [µg/mL] | MIC [1] [µg/mL] | MIC [2] [µg/mL] | MIC [3] [µg/mL] | MIC [4] [µg/mL] | MIC [5] [µg/mL] | MIC [6] [µg/mL] | MIC [7] [µg/mL] | MIC [8] [µg/mL] | MIC [9] [µg/mL] | MIC [10] [µg/mL] | antibacterial activity (Gram-positive bacteria; tested bacteria)
1 | O=C(O)c1ccc(-n2cc(CNc3ccccc3)c(-c3cc(C(F)(F)F)cc(C(F)(F)F)c3)n2)cc1 [Compound 1, 4-[4-(Anilinomethyl)-3-[3,5-bis(trifluoromethyl)phenyl]pyrazol-1-yl] benzoic acid] | ≥ 2 | 4 (≈ 7.91 µM) | 8 (≈ 15.8 µM) | 4 (≈ 7.91 µM) | 8 (≈ 15.8 µM) | 2 (≈ 3.96 µM) | 4 (≈ 7.91 µM) | 4 (≈ 7.91 µM) | 4 (≈ 7.91 µM) | 2 (≈ 3.96 µM) | 4 (≈ 7.91 µM) | –
2 | CC(C)(C)c1ccc(NCc2cn(-c3ccc(C(=O)O)cc3)nc2-c2cc(C(F)(F)F)cc(C(F)(F)F)c2)cc1 [Compound 3, 4-[3-[3,5-Bis(trifluoromethyl)phenyl]-4-[(4-tert-butylanilino)methyl]pyrazol-1-yl] benzoic acid] | – | 2 (≈ 3.56 µM) | 1 (≈ 1.78 µM) | 0.5 (≈ 0.89 µM) | 1 (≈ 1.78 µM) | 1 (≈ 1.78 µM) | 1 (≈ 1.78 µM) | 1 (≈ 1.78 µM) | 2 (≈ 3.56 µM) | 2 (≈ 3.56 µM) | 2 (≈ 3.56 µM) | –
3 | COc1ccc(NCc2cn(-c3ccc(C(=O)O)cc3)nc2-c2cc(C(F)(F)F)cc(C(F)(F)F)c2)cc1 [Compound 4, 4-[3-[3,5-Bis(trifluoromethyl)phenyl]-4-[(4-methoxyanilino)methyl]pyrazol-1-yl] benzoic acid] | – | 8 (≈ 14.9 µM) | 16 (≈ 29.9 µM) | 16 (≈ 29.9 µM) | 16 (≈ 29.9 µM) | 4 (≈ 7.47 µM) | 8 (≈ 14.9 µM) | 8 (≈ 14.9 µM) | 8 (≈ 14.9 µM) | 4 (≈ 7.47 µM) | 8 (≈ 14.9 µM) | –
4 | CSc1ccc(NCc2cn(-c3ccc(C(=O)O)cc3)nc2-c2cc(C(F)(F)F)cc(C(F)(F)F)c2)cc1 [Compound 6, 4-[3-[3,5-Bis(trifluoromethyl)phenyl]-4-[(4-methylsulfanylanilino)methyl]pyrazol-1-yl] benzoic acid] | 1 to 4 (≈ 1.81 to 7.25 µM) | 2 (≈ 3.63 µM) | 4 (≈ 7.25 µM) | 2 (≈ 3.63 µM) | 4 (≈ 7.25 µM) | 2 (≈ 3.63 µM) | 2 (≈ 3.63 µM) | 2 (≈ 3.63 µM) | 2 (≈ 3.63 µM) | 1 (≈ 1.81 µM) | 4 (≈ 7.25 µM) | –
5 | O=C(O)c1ccc(-n2cc(CNc3cccc(F)c3)c(-c3cc(C(F)(F)F)cc(C(F)(F)F)c3)n2)cc1 [Compound 7, 4-[3-[3,5-Bis(trifluoromethyl)phenyl]-4-[(3-fluoroanilino)methyl]pyrazol-1-yl] benzoic acid] | – | 4 (≈ 7.64 µM) | 8 (≈ 15.3 µM) | 4 (≈ 7.64 µM) | 4 (≈ 7.64 µM) | 2 (≈ 3.82 µM) | 4 (≈ 7.64 µM) | 4 (≈ 7.64 µM) | 2 (≈ 3.82 µM) | 2 (≈ 3.82 µM) | 4 (≈ 7.64 µM) | –
6 | O=C(O)c1ccc(-n2cc(CNc3ccc(F)cc3)c(-c3cc(C(F)(F)F)cc(C(F)(F)F)c3)n2)cc1 [Compound 8, 4-[3-[3,5-Bis(trifluoromethyl)phenyl]-4-[(4-fluoroanilino)methyl]pyrazol-1-yl] benzoic acid] | – | 4 (≈ 7.64 µM) | 4 (≈ 7.64 µM) | 4 (≈ 7.64 µM) | 4 (≈ 7.64 µM) | 2 (≈ 3.82 µM) | 2 (≈ 3.82 µM) | 2 (≈ 3.82 µM) | 2 (≈ 3.82 µM) | 1 (≈ 1.91 µM) | 4 (≈ 7.64 µM) | –
7 | O=C(O)c1ccc(-n2cc(CNc3ccc(Cl)cc3)c(-c3cc(C(F)(F)F)cc(C(F)(F)F)c3)n2)cc1 [Compound 9, 4-[3-[3,5-Bis(trifluoromethyl)phenyl]-4-[(4-chloroanilino)methyl]pyrazol-1-yl] benzoic acid] | – | 2 (≈ 3.7 µM) | 2 (≈ 3.7 µM) | 2 (≈ 3.7 µM) | 2 (≈ 3.7 µM) | 1 (≈ 1.85 µM) | 2 (≈ 3.7 µM) | 2 (≈ 3.7 µM) | 1 (≈ 1.85 µM) | 1 (≈ 1.85 µM) | 2 (≈ 3.7 µM) | –
8 | O=C(O)c1ccc(-n2cc(CNc3cccc(Br)c3)c(-c3cc(C(F)(F)F)cc(C(F)(F)F)c3)n2)cc1 [Compound 10, 4-[3-[3,5-Bis(trifluoromethyl)phenyl]-4-[(3-bromoanilino)methyl]pyrazol-1-yl] benzoic acid] | – | 4 (≈ 6.85 µM) | 4 (≈ 6.85 µM) | 2 (≈ 3.42 µM) | 4 (≈ 6.85 µM) | 2 (≈ 3.42 µM) | 2 (≈ 3.42 µM) | 2 (≈ 3.42 µM) | 2 (≈ 3.42 µM) | 2 (≈ 3.42 µM) | 2 (≈ 3.42 µM) | –
9 | O=C(O)c1ccc(-n2cc(CNc3cccc(C(=O)O)c3)c(-c3cc(C(F)(F)F)cc(C(F)(F)F)c3)n2)cc1 [Compound 12, 3-[[3-[3,5-Bis(trifluoromethyl)phenyl]-1-(4-carboxyphenyl)pyrazol-4-yl]methylamino] benzoic acid] | – | > 32 | > 32 | > 32 | > 32 | > 32 | > 32 | > 32 | > 32 | > 32 | > 32 | eliminated the activity
10 | O=C(O)c1ccc(-n2cc(CNc3ccc(F)c(Cl)c3)c(-c3cc(C(F)(F)F)cc(C(F)(F)F)c3)n2)cc1 [Compound 18, 4-[3-[3,5-Bis(trifluoromethyl)phenyl]-4-[(3-chloro-4-fluoro-anilino)methyl]pyrazol-1-yl] benzoic acid] | – | 1 (≈ 1.79 µM) | 2 (≈ 3.59 µM) | 2 (≈ 3.59 µM) | 2 (≈ 3.59 µM) | 1 (≈ 1.79 µM) | 2 (≈ 3.59 µM) | 1 (≈ 1.79 µM) | 1 (≈ 1.79 µM) | 1 (≈ 1.79 µM) | 2 (≈ 3.59 µM) | –
11 | O=C(O)c1ccc(-n2cc(CNc3ccc(Br)c(C(F)(F)F)c3)c(-c3cc(C(F)(F)F)cc(C(F)(F)F)c3)n2)cc1 [Compound 23, 4-[3-[3,5-Bis(trifluoromethyl)phenyl]-4-[[4-bromo-3-(trifluoromethyl)anilino]methyl]pyrazol-1-yl] benzoic acid] | – | 2 (≈ 3.07 µM) | 2 (≈ 3.07 µM) | 2 (≈ 3.07 µM) | 4 (≈ 6.13 µM) | 2 (≈ 3.07 µM) | 1 (≈ 1.53 µM) | 1 (≈ 1.53 µM) | 1 (≈ 1.53 µM) | 1 (≈ 1.53 µM) | 2 (≈ 3.07 µM) | –
12 | O=C(O)c1ccc(-n2cc(CNc3ccc(F)c(F)c3F)c(-c3cc(C(F)(F)F)cc(C(F)(F)F)c3)n2)cc1 [Compound 24, 4-[3-[3,5-Bis(trifluoromethyl)phenyl]-4-[(2,3,4-trifluoroanilino)methyl]pyrazol-1-yl] benzoic acid] | – | 1 (≈ 1.79 µM) | 2 (≈ 3.58 µM) | 2 (≈ 3.58 µM) | 4 (≈ 7.15 µM) | 1 (≈ 1.79 µM) | 2 (≈ 3.58 µM) | 1 (≈ 1.79 µM) | 1 (≈ 1.79 µM) | 1 (≈ 1.79 µM) | 2 (≈ 3.58 µM) | –
13 | O=C(O)c1ccc(-n2cc(CNc3cc(F)c(F)c(F)c3)c(-c3cc(C(F)(F)F)cc(C(F)(F)F)c3)n2)cc1 [Compound 25, 4-[3-[3,5-Bis(trifluoromethyl)phenyl]-4-[(3,4,5-trifluoroanilino)methyl]pyrazol-1-yl] benzoic acid] | – | 2 (≈ 3.58 µM) | 4 (≈ 7.15 µM) | 4 (≈ 7.15 µM) | 4 (≈ 7.15 µM) | 2 (≈ 3.58 µM) | 4 (≈ 7.15 µM) | 2 (≈ 3.58 µM) | 2 (≈ 3.58 µM) | 1 (≈ 1.79 µM) | 4 (≈ 7.15 µM) | –
14 | O=C(O)c1ccc(-n2cc(CNc3ccc(F)c(Cl)c3F)c(-c3cc(C(F)(F)F)cc(C(F)(F)F)c3)n2)cc1 [Compound 27, 4-[3-[3,5-Bis(trifluoromethyl)phenyl]-4-[(3-chloro-2,4-difluoro-anilino)methyl]pyraz-ol-1-yl] benzoic acid] | – | 1 (≈ 1.74 µM) | 2 (≈ 3.47 µM) | 2 (≈ 3.47 µM) | 2 (≈ 3.47 µM) | 1 (≈ 1.74 µM) | 1 (≈ 1.74 µM) | 1 (≈ 1.74 µM) | 1 (≈ 1.74 µM) | 1 (≈ 1.74 µM) | 2 (≈ 3.47 µM) | –
15 | O=C(O)c1ccc(-n2cc(CNc3cc(Cl)c(F)c(Cl)c3F)c(-c3cc(C(F)(F)F)cc(C(F)(F)F)c3)n2)cc1 [Compound 30, 4-[3-[3,5-Bis(trifluoromethyl)phenyl]-4-[(3,5-dichloro-2,4-difluoro-anilino)methyl]pyrazol-1-yl] benzoic acid] | – | 1 (≈ 1.64 µM) | 2 (≈ 3.28 µM) | 2 (≈ 3.28 µM) | 2 (≈ 3.28 µM) | 2 (≈ 3.28 µM) | 1 (≈ 1.64 µM) | 1 (≈ 1.64 µM) | 1 (≈ 1.64 µM) | 1 (≈ 1.64 µM) | 2 (≈ 3.28 µM) | –
